Patent US20230140972A1, “GLYCEROL GLUCOSIDE-BASED COMPOUND AND COMPOSITION COMPRISING SAME FOR ULTRAVIOLET LIGHT SHIELD OR ANTI-INFLAMMATION” (ATHENA CO., LTD., priority 2020, published 2023)

Assays:
[1] = tested on: NO production in LPS-treated RAW264.7 cells; assay: Nitric oxide (NO) production inhibition, non-enzymatic method (Griess); assay type: cell-based; conditions: Mus musculus, LPS 1 μg/mL, read-out: NO production inhibition rate
Description: An NO assay was performed to evaluate the nitric oxide (NO) production inhibition ability of the glycerol glucoside-based compound sample (EPS-S).
Specifically, subcultured RAW264.7 cells were aliquoted in a 96-well plate at 1×10^5 cells/well, and cultured for 24 hours at 37° C. in an incubator containing 5% carbon dioxide, and then, a culture media was replaced with a serum-free media. Then, each sample was diluted by concentration, treated onto the cell with LPS (final 1 μg/mL), and after culturing for 24 hours, the cell culture medium and a Griess reagent were reacted, and an absorbance was then measured at 540 nm with a microplate reader. Dexamethasone was used as a positive control group. After the test was conducted once, each absorbance value was substituted into Equation 2 below to obtain the NO production inhibition rate (%), and it was expressed as the mean±standard deviation.

[2] = tested on: PGE2 production in RAW264.7 cells; assay: PGE2 production inhibition using ELISA assay; assay type: cell-based, mouse; conditions: LPS 10 ng/mL
Description: A PGE2 production inhibition ability of the sample in RAW264.7 cells was evaluated using a PGE2 ELISA assay.
(§1) Specifically, subcultured RAW264.7 cells were aliquoted into a 6-well dish at 1.5×10^6 cells/well and cultured for 24 hours at 37° C. in an incubator containing 5% carbon dioxide, and then a culture media was replaced with a serum-free media. Then, each sample was diluted by concentration and treated onto the cells with LPS (final 10 ng/mL). After culturing for 24 hours, the cell culture medium was recovered and a PGE2 ELISA assay was performed.
100 μL of each of a standard solution and a cell culture solution were put into each well, and then 50 μL of PGE2 conjugate and 50 μL of PGE2 antibody were sequentially added and reacted at room temperature for 2 hours. Then, the reaction solution was removed from each well, washing is performed with a wash buffer, 200 μL of a substrate solution was then added, and reacted at room temperature for 45 minutes. Then, 50 μL of a stop solution was added and an absorbance was measured at 405 and 570 nm. Dexamethasone was used as a positive control group. After the test was conducted once, an amount of PGE2 production was calculated by substituting the absorbance value into a PGE2 standard solution calibration curve, and the PGE2 production inhibition rate (%) was calculated using Equation 5 below and expressed as the mean±standard deviation.

[3] = tested on: TNF-α production in RAW264.7 cells; assay: TNF-α production inhibition using ELISA assay; assay type: cell-based; conditions: Mus musculus, LPS 10 ng/mL
Description: A TNF-α production inhibition ability of the sample in RAW264.7 cells was evaluated using a TNF-α ELISA assay.
as §1, with “cells/well,” for “cells/well”, “the TNF-α” for “a PGE2”
(§2) 50 μL of an assay diluent was put into each well, and 50 μL of each of a standard solution and a cell culture solution were added to each well and reacted at room temperature for 2 hours. Thereafter, the reaction solution was removed from each well, washed with a wash buffer, 100 μL of TNF-α conjugate was added, and after reacting at room temperature for 2 hours, the reaction solution was removed from each well and washing is performed with a wash buffer.
(§3) Thereafter, 100 μL of a substrate solution was added and a reaction under light blocking was carried out at room temperature, and then 100 μL of a stop solution was added, and an absorbance was measured at 450 and 570 nm. Dexamethasone was used as a positive control group. After the test was conducted once, a TNF-α synthesis amount was calculated by substituting the absorbance value into a TNF-α standard solution calibration curve, and then the TNF-α production inhibition rate (%) was calculated using Equation 3 below, and expressed as the mean±standard deviation of the experiment.

[4] = tested on: IL-6 production in RAW264.7 cells; assay: IL-6 production inhibition using ELISA assay; assay type: cell-based, mouse; conditions: LPS 10 ng/mL
Description: An IL-6 ELISA assay was used to evaluate an IL-6 production inhibition ability of the sample in RAW264.7 cells.
as §1, with “an IL-6” for “a PGE2”
as §2, with “IL-6” for “TNF-α”, “reaction” for “reacting”
as §3, with “Next,” for “Thereafter,”, “an IL-6 production” for “a TNF-α synthesis”, “IL-6” for “TNF-α”, “4” for “3”

Work on `COCC(COC)OC1OC(CO)C(O)C(O)C1O` (stereo not drawn) [EPS-S] yielded an inhibition at 1 ppm ([1]; 24 h, 1 ppm) of -5.66%, an inhibition at 10 ppm ([1]; 24 h, 10 ppm) of 6.1% and an inhibition at 100 ppm ([1]; 24 h, 100 ppm) of 14.2%. The inhibition at 1000 ppm ([1]; 24 h, 1,000 ppm) was 30.3%, the inhibition at 10 ppm ([2]; Mus musculus, RAW264.7, 24 h, 10 ppm, read-out: PGE2 production inhibitory ability) was 28.3% and the inhibition at 100 ppm ([2]; Mus musculus, RAW264.7, 24 h, 100 ppm, read-out: PGE2 production inhibitory ability) was 36.5%. It also gave an inhibition at 500 ppm ([2]; Mus musculus, RAW264.7, 24 h, 500 ppm, read-out: PGE2 production inhibitory ability) of 47.2%, an inhibition at 1000 ppm ([2]; Mus musculus, RAW264.7, 24 h, 1,000 ppm, read-out: PGE2 production inhibitory ability) of 94.1% and an inhibition at 10 ppm ([3]; 24 h, 10 ppm, read-out: TNF-α production inhibition ability) of 29.7%. It also gave an inhibition at 100 ppm ([3]; 24 h, 100 ppm, read-out: TNF-α production inhibition ability) of 34.9%, an inhibition at 500 ppm ([3]; 24 h, 500 ppm, read-out: TNF-α production inhibition ability) of 49.7% and an inhibition at 1000 ppm ([3]; 24 h, 1,000 ppm, read-out: TNF-α production inhibition ability) of 77.6%. For the same molecule, the inhibition at 10 ppm ([4]; Mus musculus, RAW264.7, 24 h, 10 ppm, read-out: IL-6 production inhibition ability) was 10.1%, the inhibition at 100 ppm ([4]; Mus musculus, RAW264.7, 24 h, 100 ppm, read-out: IL-6 production inhibition ability) was 23.8% and the inhibition at 500 ppm ([4]; Mus musculus, RAW264.7, 24 h, 500 ppm, read-out: IL-6 production inhibition ability) was 36.3%. It also gave an inhibition at 1000 ppm ([4]; Mus musculus, RAW264.7, 24 h, 1,000 ppm, read-out: IL-6 production inhibition ability) of 92.4%.

In the case of `C[C@@H]1C[C@H]2[C@@H]3CCC4=CC(=O)C=C[C@]4(C)[C@@]3(F)[C@@H](O)C[C@]2(C)[C@@]1(O)C(=O)CO` [Dexamethasone], the inhibition at 10 µM ([1]; 24 h, 10 μM) is reported as 15.6%, the inhibition at 20 µM ([1]; 24 h, 20 μM) is reported as 18% and the inhibition at 40 µM ([1]; 24 h, 40 μM) is reported as 27.6%. For the same molecule, the inhibition at 80 µM ([1]; 24 h, 80 μM) was 33.8%, the “PGE2 production inhibitory ability” value ([2]; 24 h, 10 Mm (10 μM)) was 83.55% and the inhibition at 1 µM ([2]; Mus musculus, RAW264.7, 24 h, 1 μM, read-out: PGE2 production inhibitory ability) was 62.3%. It also gave an inhibition at 5 µM ([2]; Mus musculus, RAW264.7, 24 h, 5 μM, read-out: PGE2 production inhibitory ability) of 81.4%, an inhibition at 20 µM ([2]; Mus musculus, RAW264.7, 24 h, 20 μM, read-out: PGE2 production inhibitory ability) of 86.4% and an inhibition at 80 µM ([2]; Mus musculus, RAW264.7, 24 h, 80 μM, read-out: PGE2 production inhibitory ability) of 96.4%. For the same molecule, the inhibition at 1 µM ([3]; 24 h, 1 μM, read-out: TNF-α production inhibition ability) was 13.8%, the inhibition at 5 µM ([3]; 24 h, 5 μM, read-out: TNF-α production inhibition ability) was 34.7% and the inhibition at 10 µM ([3]; 24 h, 10 μM, read-out: TNF-α production inhibition ability) was 46.5%. The inhibition at 20 µM ([3]; 24 h, 20 μM, read-out: TNF-α production inhibition ability) was 52.1%, the inhibition at 50 µM ([3]; 24 h, 50 μM (text b137), read-out: TNF-α production inhibition rate) was 65% and the inhibition at 80 µM ([3]; 24 h, 80 μM, read-out: TNF-α production inhibition ability) was 65.05 ± 0.6%. The “IL-6 production inhibition ability” value ([4]; 24 h, 10 Mm (10 μM)) was 55.97%, the inhibition at 1 µM ([4]; Mus musculus, RAW264.7, 24 h, 1 μM, read-out: IL-6 production inhibition ability) was 12.7% and the inhibition at 5 µM ([4]; Mus musculus, RAW264.7, 24 h, 5 μM, read-out: IL-6 production inhibition ability) was 48.4%. The inhibition at 20 µM ([4]; Mus musculus, RAW264.7, 24 h, 20 μM, read-out: IL-6 production inhibition ability) was 63.3% and the inhibition at 50 µM ([4]; Mus musculus, RAW264.7, 24 h, 50 μM (text b146), read-out: IL-6 production inhibition rate) was 88.7%.
